This is an account of results in patent publication US20180148429A1 (SELVITA S.A., priority 2015, published 2018).

pIC50: −log10 of the molar value.

T1 sequence (Q16875 whole entry): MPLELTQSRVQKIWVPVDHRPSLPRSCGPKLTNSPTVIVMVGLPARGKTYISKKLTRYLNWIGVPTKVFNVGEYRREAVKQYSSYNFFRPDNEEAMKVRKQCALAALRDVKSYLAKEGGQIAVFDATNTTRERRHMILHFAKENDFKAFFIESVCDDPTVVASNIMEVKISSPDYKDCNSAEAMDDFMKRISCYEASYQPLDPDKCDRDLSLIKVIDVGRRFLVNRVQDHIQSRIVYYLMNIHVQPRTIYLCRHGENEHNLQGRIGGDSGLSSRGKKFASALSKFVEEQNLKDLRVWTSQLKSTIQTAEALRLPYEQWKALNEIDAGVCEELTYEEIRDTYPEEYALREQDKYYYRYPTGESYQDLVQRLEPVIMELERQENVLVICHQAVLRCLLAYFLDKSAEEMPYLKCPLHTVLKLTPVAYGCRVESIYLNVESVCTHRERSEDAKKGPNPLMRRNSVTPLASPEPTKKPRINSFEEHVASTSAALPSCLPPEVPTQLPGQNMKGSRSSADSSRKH

One experiment has as its target T1, Human recombinant His-tagged PFKFB3 (Homo sapiens, UniProt Q16875).
T1 construct: His; made in house
As to the kind of experiment: PFKFB3 IC50 determination assay (in vitro kinase assay, modified ADP-Glo system). In kind it is biochemical.
Conditions: not given
The protocol:
PFKFB3 IC50 Determination Assay
In vitro kinase assay used to determine IC50 values for tested inhibitors is based on a modified ADP-Glo™ system (Promega) and consists of two parts:
1. Kinase reaction—performed in optimized conditions. At this step PFKFB3 phosphorylates its substrate fructose-6-phosphate using ATP as a source of phosphate to produce fructose-2,6-bisphosphate and ADP. Reaction is performed at Km values for ATP and substrate using optimized buffer composition and time of the reaction. Human recombinant His-tagged PFKFB3 (PFKFB3 BATCH II SEC) with confirmed activity is produced and purified in-house.
2. Detection of ADP as a product of the reaction using ADP-Glo™ system. This part is conducted by using the commercially available kit ADP-Glo™ Kinase Assay (Promega, cat. No# V9103) according to manufacturer's instruction, modified by 5× dilutions of assay reagents (both ADP-Glo™ Reagent and Kinase Detection Solution).
Test compounds are dissolved in DMSO and then transferred to the V-bottom 96-well plate.
15 μL per well of Mix 1 is transferred to assay wells of 96-well white plate. […] Total reaction volume is 30 μL per well. Samples are tested in duplicates. Final concentration of DMSO in the reaction is 6.7%. Conditions needed for performing PFKFB3 (PFKFB3 BATCH II SEC) in vitro kinase assay are given below:
This protocol is based on Technical Bulletin, ADP-Glo™ Kinase Assay (Promega) and is adapted to 96-well plate containing 30 μL reaction mixture:
The plate is incubated for 90 minutes on a shaker at rt. […] Plate is incubated for 40 minutes on a shaker at rt, protected from light. Luminescence is measured in the plate reader Synergy 2 (BioTek).
Luminescent readouts for compounds tested in 10 concentrations (routinely from 100 μM to […], […] serial dilutions) in duplicates, as well as for positive control, are first normalized to no-substrate negative control by its subtraction. In the next step, % of normalized positive control is calculated for each data point and plotted against test compound concentration:
% of control—percent of positive control normalized to no-substrate negative control Lumcpd—luminescence of test compound Lumneg—luminescence of no-substrate negative control Lumpos—luminescence of positive control
IC50 parameter is determined by the GraphPad Prism 5.0 software
[log(inhibitor) vs. response−Variable slope (four parameters)].
Background: ADP-Glo turns the ADP formed in a reaction into a luminescent signal.
For the compound `COc1ccc([C@H](Nc2cc(-c3ccc4ccn(C)c4c3)c3nccnc3c2)c2cnnn2C)cn1` [Example 326, N-[(S)-(6-methoxypyridin-3-yl)(1-methyl-1H-1,2,3-triazol-5-yl)methyl]-8-(1-methyl-1H-indol-6-yl)quinoxalin-6-amine], the pIC50 was 6.00 to 9.00.
`Cn1ccc2ccc(-c3cc(NC(c4ccncc4)C4CCNCC4)cc4nccnc34)cc21` (stereo not drawn) [Example 228]: the negative-log IC50 (pIC50) is 4.00 to 5.00.

Staying with this experiment, now noted: ADP-Glo; ATP 20 μM (Km), fructose-6-phosphate 2 μM (Km), 25 nM PFKFB3, 2 h, rt; read-out: PFKFB3 IC50.
As for `COc1ccc(C(Nc2cc(-c3ccc4ccn(C)c4c3)c3nccnc3c2)c2cncn2C)cn1` (stereo not drawn) [Example 314, N-[(6-methoxypyridin-3-yl)(1-methyl-1H-imidazol-5-yl)methyl]-8-(1-methyl-1H-indol-6-yl)quinoxalin-6-amine], the pIC50 was 6.00 to 9.00.
The same measure, in the same setting: in the case of `Cc1csc2ccc(-c3cc(NC(c4cccnc4)c4cncn4C)cc4nccnc34)cc12` (stereo not drawn) [Example 313, 8-(3-methyl-1-benzothiophen-5-yl)-N-[(1-methyl-1H-imidazol-5-yl)(pyridin-3-yl)methyl]quinoxalin-6-amine] it was 6.00 to 9.00; in that of `Cn1cnc(C(Nc2cc(-c3ccc4ccn(C)c4c3)c3nccnc3c2)c2cccnc2)c1` (stereo not drawn) [Example 290, N-[(1-methyl-1H-imidazol-4-yl)(pyridin-3-yl)methyl]-8-(1-methyl-1H-indol-6-yl)quinoxalin-6-amine], 5.00 to 6.00.
In the case of `Cn1ccc2ccc(-c3cc(NC4CCN(C(=O)C5CC5)C4)cc4nccnc34)cc21` (stereo not drawn) [Example 162], the negative logarithm of the IC50 (pIC50) is 5.00 to 6.00.
Take `CCN(CC)C(=O)CN1CCC(C(Nc2cc(-c3ccc4ccn(C)c4c3)c3nccnc3c2)c2cccnc2)CC1` (stereo not drawn) [Example 277, N,N-diethyl-2-[4-({[8-(1-methyl-1H-indol-6-yl)quinoxalin-6-yl]amino}(pyridin-3-yl)methyl)piperidin-1-yl]acetamide]: the negative logarithm of the IC50 (pIC50) was 5.00 to 6.00.
The same measure, in the same setting: next, `COc1ccc(C(Nc2cc(-c3ccc4scc(C)c4c3)c3nccnc3c2)c2cnnn2C)cn1` (stereo not drawn) [Example 302, N-[(6-methoxypyridin-3-yl)(1-methyl-1H-1,2,3-triazol-5-yl)methyl]-8-(3-methyl-1-benzothiophen-5-yl)quinoxalin-6-amine]: 6.00 to 9.00; `COc1ccc(CNc2cc(-c3ccc4ccn(C)c4c3)c3nccnc3c2)cn1` [Example 321, N-[(6-methoxypyridin-3-yl)methyl]-8-(1-methyl-1H-indol-6-yl)quinoxalin-6-amine]: 5.00 to 6.00.
The same measure, in the same setting: in the case of `CC(=O)N1CC(Nc2cc(-c3ccc4ccn(C)c4c3)c3nccnc3c2)C1` [Example 155] it was 5.00 to 6.00.
Same read-out and setting: next, `CNC(=O)CN1CCC(C(Nc2cc(-c3ccc4ccn(C)c4c3)c3nccnc3c2)c2cccnc2)CC1` (stereo not drawn) [Example 275, N-methyl-2-[4-({[8-(1-methyl-1H-indol-6-yl)quinoxalin-6-yl]amino}(pyridin-3-yl)methyl)piperidin-1-yl]acetamide]: 6.00 to 9.00.
For `Cn1ccc2ccc(-c3cc(NC(c4cccnc4)c4ccc(N)nc4)cc4nccnc34)cc21` (stereo not drawn) [Example 296, N-[(6-aminopyridin-3-yl)(pyridin-3-yl)methyl]-8-(1-methyl-1H-indol-6-yl)quinoxalin-6-amine], the pIC50 was 6.00 to 9.00.
Consider `CC(=O)N1CCCC(Nc2cc(-c3ccc4ccn(C)c4c3)c3nccnc3c2)CC1` (stereo not drawn) [Example 168], for which the negative-log IC50 (pIC50) was 6.00 to 9.00.
Still for that read-out and setting: next, `COc1ccc(C(Nc2cc(-c3ccc4ccn(C)c4c3)c3nccnc3c2)c2ccns2)cn1` (stereo not drawn) [Example 319, N-[(6-methoxypyridin-3-yl)(1,2-thiazol-5-yl)methyl]-8-(1-methyl-1H-indol-6-yl)quinoxalin-6-amine]: 6.00 to 9.00; `Cn1ccc2ccc(-c3cc(NC(c4cccnc4)c4cc[nH]c(=O)c4)cc4nccnc34)cc21` (stereo not drawn) [Example 267, 4-({[8-(1-methyl-1H-indol-6-yl)quinoxalin-6-yl]amino}(pyridin-3-yl)methyl)-1,2-dihydropyridin-2-one]: 6.00 to 9.00.
Still for that read-out and setting: in the case of `CCC(=O)N1CCC(C(Nc2cc(-c3ccc4ccn(C)c4c3)c3nccnc3c2)c2cccnc2)CC1` (stereo not drawn) [Example 238] it was 6.00 to 9.00.
On the same count and under the same terms, in the case of `CC(=O)N1CCC(C(Nc2cc(-c3ccc4occ(C)c4c3)c3nccnc3c2)c2cccnc2)CC1` (stereo not drawn) [Example 233] it was 6.00 to 9.00; in that of `CC(=O)N1CC[C@@H](Nc2cc(-c3ccc4ccn(C)c4c3)c3nccnc3c2)C1` [Example 154], 5.00 to 6.00.
As to `Cn1ccc2ccc(-c3cc(NC4CCN(S(C)(=O)=O)C4)cc4nccnc34)cc21` (stereo not drawn) [Example 163], the negative logarithm of the IC50 (pIC50) was 6.00 to 9.00.
On the same count and under the same terms, in the case of `COc1ccc(C(Nc2cc(-c3ccc4sc(N)nc4c3)c3nccnc3c2)C2CCN(C(C)=O)CC2)cn1` (stereo not drawn) [Example 291, 1-[4-({[8-(2-amino-1,3-benzothiazol-5-yl)quinoxalin-6-yl]amino}(6-methoxypyridin-3-yl)methyl)piperidin-1-yl]ethan-1-one] it was 4.00 to 5.00.
The same measure, in the same setting: in the case of `CC(=O)N1CCC(C(Nc2cc(-c3ccc(Br)cc3)c3nccnc3c2)c2cccnc2)CC1` (stereo not drawn) [Example 292, 1-[4-({[8-(4-bromophenyl)quinoxalin-6-yl]amino}(pyridin-3-yl)methyl)piperidin-1-yl]ethan-1-one] it was 4.00 to 5.00; in that of `CC(=O)N1CC(C(Nc2cc(-c3ccc4ccn(C)c4c3)c3nccnc3c2)c2cccnc2)C1` (stereo not drawn) [Example 289, 1-[3-({[8-(1-methyl-1H-indol-6-yl)quinoxalin-6-yl]amino}(pyridin-3-yl)methyl)azetidin-1-yl]ethan-1-one], 5.00 to 6.00.
On the same count and under the same terms, in the case of `CC(=O)N1CCCC(CN(c2cccnc2)c2cc(-c3ccc4ccn(C)c4c3)c3nccnc3c2)C1` (stereo not drawn) [Example 224] it was 6.00 to 9.00; in that of `Cc1ncc(CNc2cc(-c3ccc4ccn(C)c4c3)c3nccnc3c2)n1C` [Example 285, N-[(1,2-dimethyl-1H-imidazol-5-yl)methyl]-8-(1-methyl-1H-indol-6-yl)quinoxalin-6-amine], 5.00 to 6.00.
For the compound `Cn1ccc2ccc(-c3cc(NC(c4cccnc4)C4CCN(CC(N)=O)CC4)cc4nccnc34)cc21` (stereo not drawn) [compound 253, 2-[4-({[8-(1-methyl-1H-indol-6-yl)quinoxalin-6-yl]amino}(pyridin-3-yl)methyl)piperidin-1-yl]acetamide], the pIC50 was 6.00 to 9.00.
As to `Cn1ccc2ccc(-c3cc(N[C@H]4CCN(c5ccccn5)C4)cc4nccnc34)cc21` [Example 159, 8-(1-methyl-1H-indol-6-yl)-N-[(3S)-1-(pyridin-2-yl)pyrrolidin-3-yl]quinoxalin-6-amine], the pIC50 is 4.00 to 5.00.
Same read-out and setting: next, `COc1ccc(C(Nc2cc(-c3ccc4ccn(C)c4c3)c3nccnc3c2)c2ccnn2C)cn1` (stereo not drawn) [Example 317, N-[(6-methoxypyridin-3-yl)(1-methyl-1H-pyrazol-5-yl)methyl]-8-(1-methyl-1H-indol-6-yl)quinoxalin-6-amine]: 5.00 to 6.00; `CCn1ccc2ccc(-c3cc(NC4CCN(C(C)=O)CC4)cc4nccnc34)cc21` [Example 147]: 5.00 to 6.00.
Regarding `Cn1ccc2ccc(-c3cc(NC(c4cccnc4)C4CCN(CC(=O)O)CC4)cc4nccnc34)cc21` (stereo not drawn) [compound 252, 2-[4-({[8-(1-methyl-1H-indol-6-yl)quinoxalin-6-yl]amino}(pyridin-3-yl)methyl)piperidin-1-yl]acetic acid], the negative-log IC50 (pIC50) is 5.00 to 6.00.
On the same count and under the same terms, next, `CN1C2CCC1CC(C(Nc1cc(-c3ccc4ccn(C)c4c3)c3nccnc3c1)c1cccnc1)C2` (stereo not drawn) [Example 304, 8-(1-methyl-1H-indol-6-yl)-N-({8-methyl-8-azabicyclo[3.2.1]octan-3-yl}(pyridin-3-yl)methyl)quinoxalin-6-amine]: 6.00 to 9.00.
The same measure, in the same setting: in the case of `CC(N)C(=O)N1CCC(C(Nc2cc(-c3ccc4ccn(C)c4c3)c3nccnc3c2)c2cccnc2)CC1` (stereo not drawn) [Example 274, 2-amino-1-[4-({[8-(1-methyl-1H-indol-6-yl)quinoxalin-6-yl]amino}(pyridin-3-yl)methyl)piperidin-1-yl]propan-1-one] it was 5.00 to 6.00; in that of `Cn1ccc2ccc(-c3cc(NC(c4cccnc4)c4ccnc(N)c4)cc4nccnc34)cc21` (stereo not drawn) [Example 288, N-[(2-aminopyridin-4-yl)(pyridin-3-yl)methyl]-8-(1-methyl-1H-indol-6-yl)quinoxalin-6-amine], 6.00 to 9.00.
Turning to `CC(=O)N1CCC(C(Nc2cc(-c3ccc4ccn(C)c4c3)c3nccnc3c2)c2cnnn2C)CC1` (stereo not drawn) [Example 266, 1-{4-[(1-methyl-1H-1,2,3-triazol-5-yl)({[8-(1-methyl-1H-indol-6-yl)quinoxalin-6-yl]amino})methyl]piperidin-1-yl}ethan-1-one], the negative-log IC50 (pIC50) was 6.00 to 9.00.

The pIC50 is the negative decadic logarithm of the IC50, by convention in mol/L.
